Measurements reported in patent US12729194B2, “Compounds for the treatment of human immunodeficiency virus” (priority 2019, dated 2026).

Key:
[1] = system: VLP HIV-1AD8 Env; test: Antibody recognition of VLP-associated Env
Experimental: (§1) Characterization of VLP-associated Env: To prepare VLPs with HIV-1AD8 Env, 150-mm dishes of 30-40% confluent A549-Gag/Env cells were seeded and, on the following day, treated with 2 μg/ml doxycycline. Approximately 72 hours after induction, cell supernatants were harvested and cleared by low-speed centrifugation (500×g for 15 minutes at 4° C.) and 0.45-μ filtration. VLPs were pelleted by centrifugation at 100,000×g for one hour at 4° C. The resuspended VLP preparation was clarified by low-speed centrifugation. BMS-806 and compounds described herein were added to the clarified VLP-containing suspensions. In some cases, the VLP-compound mixtures were irradiated with a 100-watt, 365-nm ultraviolet (UV) lamp for 10 minutes at room temperature. For all UV studies, exposure of the samples to visible light was minimized.
For studies of the binding of ligands (antibodies, CD4-Ig and C34-Ig) to detergent-solubilized VLP Env, VLPs prepared as described above were pelleted (20,000×g for 30 minutes at 4° C.). The pellet was incubated with 1.5% Triton X-100 for 30 minutes at 4° C. The VLP lysates were centrifuged (20,000×g for 30 minutes at 4° C.) and the supernatants were incubated with ligands (10 μg/ml) in a 50-μl volume with 25 mg/ml of Protein A-Sepharose beads for one hour at 4° C. The beads were pelleted (1000 rpm for 1 minute at room temperature), washed three times with 1 ml wash buffer with 1% Triton X-100, suspended in LDS Sample Buffer and analyzed by Western blot, as described above.
In a second assay format, the effect of the compounds was analyzed on the binding of antibodies to Env on intact VLPs, in the absence of detergent. In this case, VLPs in A549-Gag/Env supernatants, clarified as described above, were pelleted at 100,000×g for one hour at 4° C. The pellet was resuspended in PBS and the VLPs pelleted at 20,000×g for 30 minutes at 4° C. The VLPs were resuspended in PBS and incubated with antibodies (10 μg/ml) in a 100-μl volume for one hour at 4° C. The VLPs were then pelleted (20,000×g for 30 minutes at 4° C.) and washed with PBS three times. The VLP pellet was then solubilized in 1.5% Triton X-100 for 30 minutes at 4° C., after which the VLP lysates were clarified by centrifugation at 20,000×g for 30 minutes at 4° C. The supernatants were incubated with 50 μl of Protein A-Sepharose beads for one hour at 4° C. The beads were pelleted (1000 rpm for 1 minute at room temperature), washed three times with 1 ml wash buffer with 1% Triton X-100, suspended in LDS Sample Buffer, and analyzed by Western blot, as described above.

[2] = system: HIV-1 with HIV-1JR-FL Env; test: microbe, parasite or virus in culture; format: cell-based; conditions: Human immunodeficiency virus 1; Cf2Th-CD4/CCR5 target cells, 48 hours, luciferase; means and standard errors of four experiments; read-out: 50% inhibitory concentration (IC50), JR-FL
[3] = system: envelope glycoproteins of the amphotropic murine leukemia virus (AMLV); test: microbe, parasite or virus in culture; format: cell-based; conditions: Cf2Th-CD4/CCR5 target cells, 48 hours, luciferase, specificity control, read-out: 50% inhibitory concentration (IC50), AMLV
[4] = system: HIV-1AD8 Env on VLPs; test: Reversibility of compound effects on VLP Env conformation (19b antibody recognition after washing)
Experimental: as §1
For studies of the reversibility of effects, the compounds were added to the VLPs and mixed for several seconds at room temperature. Then the VLPs were pelleted (20,000×g for 30 minutes at 4° C.) twice, washing with 1.5 ml PBS with 2% DMSO. The pelleted VLPs were resuspended in 1 ml PBS with 2% DMSO and incubated at room temperature for various lengths of time (20 minutes—3 weeks). Control VLPs were incubated in the continued presence of the compounds at room temperature for the same length of time. Then the VLPs were pelleted (20,000×g for 30 minutes at 4° C.) and the pellet incubated with 1.5% Triton X-100 for 30 minutes at 4° C. The VLP lysates were centrifuged (20,000×g for 30 minutes at 4° C.) and the supernatants were incubated with antibodies (10 μg/ml) in a 50-μl volume with 25 mg/ml of Protein A-Sepharose beads for one hour at 4° C. The beads were pelleted (1000 rpm for 1 minute at room temperature) and washed three times with 1 ml wash buffer with 1% Triton X-100. The beads were suspended in NuPAGE LDS Sample Buffer (ThermoFisher), boiled and analyzed by Western blot, as described above.
The BMS-806-induced decrease in binding of the 19b anti-V3 antibody can be used as an indicator of BMS-806-Env binding, allowing estimation of the stability of the Env-compound complex. BMS-806 and BMS-529 were incubated with the HIV-1AD8 Env on VLPs. The VLPs were then washed and incubated at room temperature for various lengths of time in a buffer with (+/+) or without (+/−) compound. After this incubation, Env conformation was assessed using the 19b anti-V3 antibody, the 2G12 antibody (the binding of which is not affected by BMS-806), and a negative control human immunoglobulin (hIgG) preparation. 19b recognition of Env in the washed samples (+/−) was compared with those in the samples continuously incubated with the compound (+/+) and the untreated samples (−) (FIG. 4). […] Despite this slow rate of dissociation of compounds described herein from Env, the binding and the consequent effects of these compounds on Env conformation appear to be reversible.

[5] = system: HIV-1 with HIV-1AD8 Env; test: microbe, parasite or virus in culture; format: cell-based; conditions: Human immunodeficiency virus 1; Cf2Th-CD4/CCR5 target cells, 48 hours, luciferase; means and standard errors of four experiments; read-out: 50% inhibitory concentration (IC50), AD8
[6] = system: HIV-1 with JR-FL S375W Env; format: cell-based; conditions: Cf2Th-CD4/CCR5 target cells, 48 hours, luciferase; read-out: 50% inhibitory concentration (IC50), JR-FL S375W

Row | SMILES | VLP Env recognition by poorly neutralizing antibodies two weeks after treatment ([1]; compound plus UV irradiation, washed, two weeks without compound) | VLP Env recognition by bNAbs two weeks after treatment ([1]; compound plus UV irradiation, PG9, PGT145, PGT151, 35022, 2F5, 4E10, 10E8) | IC50 [2] | IC50 [3] | Durability / reversibility of Env conformational effects (in words) ([4]; after washing) | IC50 [5] | IC50 [6] | Recognition of VLP Env by poorly neutralizing antibodies [1] | Recognition of mature VLP gp120 Env by quaternary-epitope bNAbs ([1]; PG9, PG16, PGT145, PGT151, 35O22) | Conformational effect on 19b binding after washing ([4]; twenty-four hours after washing, room temperature)
1 | COc1ccc(-c2ccc(CNC(=O)c3c(F)c(F)c(N=[N+]=[N-])c(F)c3F)o2)c2[nH]cc(C(=O)C(=O)N3CCN(C(=O)c4ccccc4)CC3)c12 [AEG-II-168] | lowered Env recognition by poorly neutralizing antibodies | increased recognition by several bNAbs | 1.5 nM | > 100 nM | at least three weeks | 2.8 nM | > 100 nM |  |  | 
2 | COc1ccnc2[nH]cc(C(=O)C(=O)N3CCN(C(=O)c4ccccc4)C[C@H]3C)c12 [BMS-806, reference compound] |  |  | 1.6 nM | > 100 nM |  | 0.4 nM | > 100 nM | reduced recognition of the uncleaved Env | enhanced the recognition of the mature gp120 Env | much less evident
